Measured values as given in patent US20250073255A1, “USE OF FA-TYPE LIPID COMPOUNDS IN PREPARATION OF NUCLEIC ACID DELIVERY REAGENT AND RELATED PRODUCT” (BEIJING BAISHIKANG PHARMACEUTICAL TECHNOLOGY (BSJPHARMA) …, priority 2021, published 2025).

System: C57BL/6 male mice
Experiment: In vivo delivery study of lipid nucleic acid mixture (oral gavage, RT-qPCR of PGY-sRNA-26 in tissues)
Parameters: species or system mouse
Details: for oral delivery of single-stranded sRNA nucleic acids into mouse brain tissue / oral delivery of single-stranded sRNA nucleic acids into mouse femur / oral delivery of single-stranded sRNA nucleic acids into mouse intestinal tissue / oral delivery of single-stranded sRNA nucleic acids into mouse liver tissue / oral delivery of single-stranded sRNA nucleic acids into mouse lung tissue / oral delivery of single-stranded sRNA nucleic acids into mouse blood / oral delivery of single-stranded sRNA nucleic acids into mouse kidney tissue / oral delivery of single-stranded sRNA nucleic acids into mouse spleen tissue / oral delivery of single-stranded sRNA nucleic acids into mouse stomach tissue / oral delivery of single-stranded sRNA nucleic acids into mouse heart tissue: 100 μg lipid:10 nmol PGY-sRNA-26, sampled after 12 hours; for oral delivery of single-stranded sRNA nucleic acids into mouse intestinal tissue: intestine; for oral delivery of single-stranded sRNA nucleic acids into mouse heart tissue: vs free uptake group; for overall delivery efficacy: delivering nucleic acids into each tissue and blood tested: 100 μg lipid:10 nmol PGY-sRNA-26, all tissues and blood tested
Procedure, shortened: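 Lipid (100 μg) and 10 nmol 3'-methylated single-stranded PGY-sRNA-26 were heated at 90 °C for 15 min, then given by oral gavage to mice fasted 12 h. Controls were saline and free sRNA. Blood and tissues were taken at 12 h, and levels were measured by stem-loop RT-qPCR relative to U6.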

Row | SMILES | oral delivery of single-stranded sRNA nucleic acids into mouse brain tissue | oral delivery of single-stranded sRNA nucleic acids into mouse femur | oral delivery of single-stranded sRNA nucleic acids into mouse intestinal tissue | oral delivery of single-stranded sRNA nucleic acids into mouse liver tissue | oral delivery of single-stranded sRNA nucleic acids into mouse lung tissue | oral delivery of single-stranded sRNA nucleic acids into mouse blood | oral delivery of single-stranded sRNA nucleic acids into mouse kidney tissue | oral delivery of single-stranded sRNA nucleic acids into mouse spleen tissue | oral delivery of single-stranded sRNA nucleic acids into mouse stomach tissue | oral delivery of single-stranded sRNA nucleic acids into mouse heart tissue | overall delivery efficacy: delivering nucleic acids into each tissue and blood tested
1 | CC/C=C/C=C/C=O [Lipid 618, (2E,4E)-hepta-2,4-dienal] | can effectively orally deliver | can effectively orally deliver | can effectively orally deliver | can effectively orally deliver | can effectively orally deliver | – | – | – | – | – | –
2 | C=CC(=O)CCCCC [Lipid 619, oct-1-en-3-one] | can effectively orally deliver | can effectively orally deliver | can effectively orally deliver | can effectively orally deliver | – | can effectively orally deliver | can effectively orally deliver | can effectively orally deliver | can effectively orally deliver | – | –
3 | CCCCC/C=C\C/C=C\C/C=C\C/C=C\CCCC(=O)O [Lipid 620, (5Z,8Z,11Z,14Z)-icosa-5,8,11,14-tetraenoic acid] | can effectively orally deliver | can effectively orally deliver | can effectively orally deliver | can effectively orally deliver | can effectively orally deliver | – | can effectively orally deliver | can effectively orally deliver | can effectively orally deliver | can effectively orally deliver | –
4 | CC=CC(C)=O [Lipid 621] | can effectively orally deliver | can effectively orally deliver | can effectively orally deliver | can effectively orally deliver | can effectively orally deliver | can effectively orally deliver | – | – | can effectively orally deliver | can effectively orally deliver | –
5 | CCCC(=O)CC(=O)N[C@H]1CCOC1=O [Lipid 622, 3-oxo-N-[(3S)-2-oxooxolan-3-yl]hexanamide] | can effectively orally deliver | can effectively orally deliver | can effectively orally deliver | can effectively orally deliver | can effectively orally deliver | can effectively orally deliver | – | can effectively orally deliver | can effectively orally deliver | – | –
6 | O=C(O)CC(=O)C(=O)O [Lipid 623, 2-oxobutanedioic acid] | can effectively orally deliver | can effectively orally deliver | can effectively orally deliver | can effectively orally deliver | – | can effectively orally deliver | can effectively orally deliver | can effectively orally deliver | can effectively orally deliver | can effectively orally deliver | –
7 | CCCCCCCCCCCCCCCCCCCC(=O)O [Lipid 624, icosanoic acid] | can effectively orally deliver | can effectively orally deliver | can effectively orally deliver | can effectively orally deliver | can effectively orally deliver | – | – | – | can effectively orally deliver | can effectively orally deliver | –
8 | N[C@H](CCCC(=O)O)C(=O)O [Lipid 625, (2R)-2-aminohexanedioic acid] | can effectively orally deliver | can effectively orally deliver | can effectively orally deliver | can effectively orally deliver | can effectively orally deliver | can effectively orally deliver | can effectively orally deliver | can effectively orally deliver | can effectively orally deliver | can effectively orally deliver | best delivery efficacy
9 | C=C(CC(=O)O)C(=O)O [Lipid 626, 2-methylidenebutanedioic acid] | can effectively orally deliver | can effectively orally deliver | can effectively orally deliver | can effectively orally deliver | can effectively orally deliver | can effectively orally deliver | can effectively orally deliver | – | – | can effectively orally deliver | –
10 | O=C(O)CCC(=O)O [Lipid 628, butanedioic acid] | can effectively orally deliver | can effectively orally deliver | can effectively orally deliver | can effectively orally deliver | can effectively orally deliver | can effectively orally deliver | can effectively orally deliver | can effectively orally deliver | can effectively orally deliver | can effectively orally deliver | best delivery efficacy
